Nc1nnc[nH]1
solubility (mole fraction)
Settings | in 1,4-dioxane | in 2-butanone | in NMP | in acetone | in acetonitrile | in ethanol | in ethyl acetate | in isopropanol | in methanol | in n-propanol
283.15 K | – | 0.00169 | 0.145 | 0.00476 | 0.00061 | 0.0112 | 0.00147 | 0.00423 | 0.0306 | 0.0057
285.65 K | – | 0.00191 | 0.152 | 0.00515 | 0.000713 | 0.0126 | 0.00168 | 0.00515 | 0.0329 | 0.007
288.15 K | 0.00325 | 0.00214 | 0.159 | 0.00564 | 0.000871 | 0.0143 | 0.0019 | 0.00634 | 0.0353 | 0.00835
290.65 K | 0.0037 | 0.00242 | 0.166 | 0.00617 | 0.00106 | 0.0165 | 0.00213 | 0.00755 | 0.038 | 0.00983
293.15 K | 0.00404 | 0.00272 | 0.173 | 0.00672 | 0.00127 | 0.0187 | 0.00237 | 0.00912 | 0.0408 | 0.0116
295.65 K | 0.00449 | 0.00306 | 0.181 | 0.00727 | 0.00153 | 0.0213 | 0.00263 | 0.0111 | 0.0437 | 0.0135
298.15 K | 0.00506 | 0.00344 | 0.189 | 0.00793 | 0.00185 | 0.0239 | 0.00286 | 0.0135 | 0.0471 | 0.0162
300.65 K | 0.00569 | 0.00386 | 0.198 | 0.00869 | 0.00224 | 0.0269 | 0.00313 | 0.0161 | 0.0501 | 0.0189
303.15 K | 0.0064 | 0.00438 | 0.206 | 0.0095 | 0.00273 | 0.0302 | 0.00345 | 0.0191 | 0.0537 | 0.022
305.65 K | 0.00708 | 0.00497 | 0.215 | 0.0104 | 0.00327 | 0.0338 | 0.00383 | 0.0217 | 0.0574 | 0.0255
308.15 K | 0.00785 | 0.0056 | 0.225 | 0.0114 | 0.00384 | 0.0378 | 0.00421 | 0.0259 | 0.0613 | 0.0293
310.65 K | 0.00865 | 0.00626 | 0.234 | 0.0123 | 0.00453 | 0.042 | 0.00458 | 0.0304 | 0.0654 | 0.0339
313.15 K | 0.00952 | 0.00698 | 0.244 | 0.0133 | 0.00528 | 0.0469 | 0.00503 | 0.035 | 0.0701 | 0.0388
315.65 K | 0.0103 | 0.00768 | 0.255 | 0.0142 | 0.00614 | 0.0516 | 0.00549 | 0.0398 | 0.0745 | 0.0448
318.15 K | 0.0114 | 0.00844 | 0.267 | 0.0152 | 0.00698 | 0.0569 | 0.00602 | 0.0453 | 0.0794 | 0.0512

Source: BigSolDB 2.1
